# Results: article PMC7746380, “In vitro and in vivo efficacy of the novel oral proteasome inhibitor NNU546 in multiple myeloma” (Aging (Albany NY), 2020)
# Experiments:
# [1] = Microsomal stability, mouse liver microsomes; format: in vitro ADME; conditions: pooled mouse liver microsomes, 1 μM compound, 37 °C
# Protocol: (§1) Microsomal stabilities were determined by incubating 1 μM of the test compounds with rat, mouse, dog, monkey or human liver microsomes (Xenotech, USA) for different durations at 37 °C. Clearance and T1/2 were calculated by measuring the remaining percentage of test compounds at different time-points. Liquid chromatography/mass spectrometry (Xevo Quadrupole Time-of-Flight Mass Spectrometer; Waters) and an ACQUITY High-Performance Liquid Chromatography (HPLC) system ([…]) were used to determine the relative peak area for the parent compounds.
# (§2) Antipyrine and testosterone (5 μM each)
# (§3) were used as positive and negative controls, respectively. Abbreviations: t = time; CLint, intrinsic clearance. […]
# [2] = Microsomal stability, human liver microsomes; format: in vitro ADME; conditions: pooled human liver microsomes, 1 μM compound, 37 °C
# Protocol: as §1, §2, §3
# [3] = test system: NF-κB/luciferase 293T cells; assay: NF-κB inhibition assay (luciferase reporter, TNF-α stimulated); format: cell-based; conditions: Homo sapiens, HEK-293T; 6 h pre-treatment, then 10 ng/ml TNF-α for 18 h; read from Figure 3K
# Protocol: To determine the inhibition of NF-κB signaling, the transfected NF-κB/luciferase 293T cells were pre-treated with various concentrations of NNU219 or bortezomib for 6 h and then stimulated with 10 ng/ml of tumor necrosis factor-α (TNF-α) for 18 h, followed by measurement of luciferase activity by using the Dual-Luciferase® Reporter Assay System (Promega Corp., Madison, WI, USA) as previously described.
# [4] = Microsomal stability, rat liver microsomes; format: in vitro ADME; conditions: pooled rat liver microsomes, 1 μM compound, 37 °C
# Protocol: as §1, §2, §3
# [5] = test system: 20S proteasome (CT-L, C-L, T-L activities) in whole blood; assay: In vivo proteasome activity in whole blood; design: species or system mice; conditions: 48 h after dose
# Protocol: For the cellular proteasome activity assays, cells were treated with concentrations of compounds (0-10 μM) for 1 h at 37 °C and the CT-L, C-L and T-L activities of proteasome were evaluated by using the Proteasome-Glo assay reagents (Promega Corp. Madison, WI, USA) according to the manufacturer's protocol. For determination of recovery of cellular proteasome activity, cells were treated with the compounds for 1 h and then washed thrice in PBS to remove the compounds. Cells were incubated in fresh medium for an additional 4, 24 or 72 h at 37 °C. […] Blood samples were collected after 1 h, and whole blood cells were then analyzed for proteasome activity as previously described.
# For the pharmacodynamic study, female BNX mice (n=6; 5-7 weeks old; Shanghai Sippr-BK laboratory Animal Co. Ltd.) were given one single dose of NNU219 (0.4 mg/kg) and bortezomib (1 mg/kg) by i.v. administrations or NNU546 (2-15 mg/kg) by oral gavage. […] Tissue homogenates and cell lysates were removed by centrifugation and supernatants were collected for protein quantitation and proteasome activity determination using the Proteasome-Glo assay reagents as described above.
# ARH77 xenograft = assay: ARH77 MM xenograft model; format: in vivo, mice; conditions: BIW, 3 weeks
# Protocol: For the ARH77 xenograft model, female BNX mice (n=5; 5-7 weeks old; Shanghai Sippr-BK laboratory Animal Co. Ltd.) were implanted with 5×10^6 of ARH77 cells in Matrigel (1:1) and randomized into treatment and vehicle groups when the mean tumor volume (MTV) reached 100-150 mm^3. For the intravenous treatment groups, mice were treated with bortezomib (1 mg/kg, BIW) or NNU219 (0.4 mg/kg, BIW), respectively. For i.g. administration, mice were treated with ixazomib (5 mg/kg, BIW) and NNU546 (1 mg/kg, QD) or NNU546 (2 mg/kg, QOD). Tumors were measured twice a week and the tumor volume was calculated using the following formula: 0.5 × (length × width^2).
# [6] = test system: patient-derived primary human MM xenografts; assay: Patient-derived MM xenograft (PDX) model in NCG mice; format: in vivo; conditions: 5 mg/kg i.g., BIW, 3 weeks
# Text: The PDX model was generated from biopsies of patients with MM brain manifestation at the Department of Hematology, the 1st Affiliated Hospital of Nanjing Medical University. Freshly excised tumor tissue specimens were washed and cut into 2.5×2.5×2.5 mm^3 pieces in antibiotic-containing L-15 medium. Under anesthesia with pentobarbital, 4-6 weeks-old male NCG mice (n=6; Model Animal Research Center of Nanjing University) were subcutaneously transplanted with the tumor pieces. Tumors were harvested when their size reached 500 mm^3 (Px1 xenografts). Tumor tissue from Px1 xenograft mice was divided into small pieces and then implanted again subcutaneously as described above to obtain Px2 xenografts. This process was once more and the experiments were performed on Px3 xenograft mice, which were randomized into treatment groups when tumor volume reached 100-150 mm^3. Mice were orally administered with ixazomib (5 mg/kg, i.g., BIW) or NNU546 (1 mg/kg, QD). Tumors were measured twice a week.
CLint scaled at 1 μM [1] [mL/min/kg],half-life at 1 μM [1] [min],CLint scaled at 1 μM [2] [mL/min/kg],half-life at 1 μM [2] [min],CLint scaled at 1 μM [4] [mL/min/kg],half-life at 1 μM [4] [min],SMILES,IC50 [3] [nM],proteasome inhibition in whole blood at 48 h [5],reduction of tumor volume (ARH77 xenograft; 1 mg/kg i.v.) [%],reduction of tumor volume [6] [%],reduction of tumor progression (ARH77 xenograft; 5 mg/kg i.g.) [%]
509,10.7,58.3,21.4,200,12.4,CC(C)C[C@H](NC(=O)[C@H](Cc1ccccc1)NC(=O)c1cnccn1)B(O)O [bortezomib],18.8,only minimal or no inhibition,24.9,–,–
–,–,–,–,–,–,CC(C)C[C@H](NC(=O)CNC(=O)c1cc(Cl)ccc1Cl)B(O)O [ixazomib],–,–,–,30.5,36.3
